Measured values reported in paper PMC8041284, “Tunable Methacrylamides for Covalent Ligand Directed Release Chemistry” (Journal of the American Chemical Society, 2021).

The compounds below were run against BTK (Homo sapiens, UniProt Q06187) (assay: biochemical). Details: read-out: BTK inhibition (%).
BTK, sequence (Q06187 402-655 limits assumed): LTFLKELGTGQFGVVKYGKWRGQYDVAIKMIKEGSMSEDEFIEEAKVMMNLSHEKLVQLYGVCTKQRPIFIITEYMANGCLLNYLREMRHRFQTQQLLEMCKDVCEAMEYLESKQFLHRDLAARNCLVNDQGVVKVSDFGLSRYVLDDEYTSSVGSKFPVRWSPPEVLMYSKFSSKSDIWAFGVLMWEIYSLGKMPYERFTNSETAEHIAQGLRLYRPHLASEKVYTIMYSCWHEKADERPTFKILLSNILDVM

Compound | inhibition at 10 µM [%]
O=C(NCC1CCOCC1)c1cnc(Nc2ccc(Cl)cc2Cl)nc1C(F)(F)F [PCM-0095345] | -9.3
CC(C)=CCC[C@H](C(=O)O)[C@@H]1CC[C@]2(C)C3=C(CC[C@@]12C)[C@@]1(C)CCC(=O)C(C)(C)[C@@H]1CC3 [PCM-0216312] | -6.2
Cc1c(N[C@@H](c2nnc(-c3ccc(C#N)cc3)o2)[C@H](C)O)ccc(C#N)c1Cl [PCM-0216075] | 17.8

Same assay, conditions: read-out: BTK inhibition (%), 0.75 uM BTK, […] probe 3l, 15 min preincubation

Compound | inhibition at 10 µM [%]
O=c1cc(-c2ccc(O)cc2)oc2cc(O)c([C@@H]3O[C@H](CO)[C@@H](O)[C@H](O)[C@H]3O)c(O)c12 [PCM-0216601] | 11.6
C[C@@H]1O[C@@H](O[C@H]2[C@H](O[C@H]3C[C@]4(C)[C@H](C[C@@H](O)[C@@H]5[C@@H]([C@]6(C)CC[C@H](C(C)(C)O)O6)CC[C@]54C)[C@@]4(C)CC[C@H](O)C(C)(C)[C@H]34)O[C@H](CO)[C@@H](O)[C@@H]2O)[C@H](O)[C@H](O)[C@H]1O [PCM-0216458] | 1.5
C[C@@H](O)[C@H]1C(=O)N2C(C(=O)O)=C(S[C@@H]3CN[C@H](C(=O)Nc4cccc(C(=O)O)c4)C3)[C@H](C)[C@H]12 [PCM-0216643] | 0.8
C[C@H]1O[C@@H](O[C@H]2CC[C@@]3(C)[C@@H](CC[C@]4(C)[C@@H]3C=C[C@]35OC[C@@]6(CCC(C)(C)C[C@H]63)[C@@H](O)C[C@]54C)[C@]2(C)CO)[C@H](O)[C@@H](O[C@@H]2O[C@H](CO)[C@@H](O)[C@H](O)[C@H]2O)[C@H]1O [PCM-0216249] | -23.4
CCCCCCC1CCC(=O)O1 (stereo not shown) [PCM-0216147] | 0
CN1CC(=O)N=C1N [PCM-0090615] | -3.4
Cc1cc(-c2ncc(CC(=O)Nc3ccc(-c4cnccn4)cn3)cc2C)ccn1 [PCM-0215274] | 1.5
CC(C)C1=CC2=CC[C@@H]3[C@](C)(CCC[C@@]3(C)C(=O)O)[C@H]2CC1 [PCM-0215977] | -9.3
COc1ccccc1 [PCM-0216198] | -14.7
COc1cc2ncnc(Nc3cccc(Cl)c3)c2cc1OC [PCM-0012125] | 21.4
COC(=O)/C=C/C(=O)OC [PCM-0090553] | 1.4
COc1cc2c(cc1OC)[C@H]1C[C@@H](OC(=O)[C@@H](N)C(C)C)[C@H](CC(C)C)CN1CC2 [PCM-0216567] | -27
CCCCc1ccc(O)cc1O [PCM-0216578] | -8.5
Nc1ccn([C@@H]2CS[C@H](CO)O2)c(=O)n1 [PCM-0085971] | 14
Nc1[nH]c(=O)ncc1F [PCM-0086523] | -6.2
O=C1c2ccc(Nc3ccc(F)cc3F)cc2CCc2ccc(OC[C@H](O)CO)cc21 [PCM-0215248] | 13.1
O=S(=O)(O)CCSSCCS(=O)(=O)O [PCM-0090667] | -8.6
O=C(/C=C/c1ccc(O)c(O)c1)O[C@@H]1C[C@](O)(C(=O)O)C[C@@H](O)[C@H]1O [PCM-0087069] | -10.1
O=c1[nH]c(-c2ccc(C(F)(F)F)cc2)nc2c1CSCC2 [PCM-0095054] | -25.5
CN(CC(=O)N(Cc1ccc(C2CCCCC2)cc1)c1ccc(C(=O)O)c(O)c1)S(=O)(=O)c1c(F)c(F)c(F)c(F)c1F [PCM-0215770] | 82.6
NC(=O)c1cnc(NCCc2ccc(O)c(Cl)c2)nc1NCc1ccccc1 [PCM-0216041] | 47.1
COc1ccc(-c2cc3c(C)nc(N)nc3n(C3CCC(OCCO)CC3)c2=O)cn1 (stereo not shown) [PCM-0095467] | -9.7
COc1ccc(-c2nc(N3CCOCC3)c3sc(CN(C)c4ncc(C(=O)NO)cn4)cc3n2)cn1 [PCM-0095517] | 15.2
O=C(O)/C(Cc1ccccc1[N+](=O)[O-])=N/Nc1nc(-c2ccc(Cl)c(Cl)c2)cs1 [PCM-0215282] | 54.8
O=C(Nc1ncc([N+](=O)[O-])s1)c1ccccc1O [PCM-0216250] | 7.7
CCCc1cc(=O)[nH]c(=S)[nH]1 [PCM-0085981] | 3.1

Compound | inhibition at 10 µM [%]
Cc1ccccc1N1C(=O)c2cc(S(N)(=O)=O)c(Cl)cc2NC1C (stereo not shown) [PCM-0065217] | -4.7
N#CC1(c2ccc(NC(=O)c3cccnc3NCc3ccncc3)cc2)CCCC1 [PCM-0095263] | 2.8
CNCC(=O)O [PCM-0215710] | -11.1
COc1ncc(-c2ccc3nccc(-c4ccnnc4)c3c2)cc1NS(=O)(=O)c1ccc(F)cc1F [PCM-0095528] | -18.6
Nc1nc2cc(-c3ccc4ncc(C(=O)N5CCOCC5)n4c3)ccc2o1 [PCM-0215857] | 21.4
OC[C@H]1O[C@@H](Oc2ccc(O)cc2)[C@H](O)[C@@H](O)[C@@H]1O [PCM-0086306] | -6.2
Nc1ccn([C@@H]2O[C@H](COP(=O)(O)O)[C@@H](O)[C@H]2O)c(=O)n1 [PCM-0216146] | -0.9
CC(C)OC(=O)C(C)(C)Oc1ccc(C(=O)c2ccc(Cl)cc2)cc1 [PCM-0065053] | 8.6
COc1c(C)cnc(Cn2cnc3c(Cl)nc(N)nc32)c1C [PCM-0095047] | -10.3
COc1ccc(-c2nc3ccc(C4=NNC(=O)CC4C)cc3[nH]2)cc1 (stereo not shown) [PCM-0095109] | -21.8
CC1=C[C@@]2(O)O[C@@]3(CC2=C(C)C)[C@@H](C)CC[C@@H]13 [PCM-0214997] | 20.7
O=S(=O)(Cl)c1ccc(-c2ccccc2)cc1 [PCM-0216165] | -8.5
O=C1NC(=O)/C(=C\c2ccc(-c3ccc(F)cc3)o2)S1 [PCM-0095359] | 11
O=c1cc(O)c(Cl)c[nH]1 [PCM-0095217] | -3.9
CC1(C)O[C@H]2CC(=O)OC[C@]23[C@H]2CC[C@@]4(C)[C@H](c5ccoc5)OC(=O)[C@H]5O[C@]54[C@]2(C)C(=O)C[C@@H]13 [PCM-0214679] | -3.9
C[C@@H](c1nc(-c2ccc(C#N)cc2)cs1)[C@](O)(Cn1cncn1)c1cc(F)ccc1F [PCM-0214918] | -14
Cn1cnc(=N)c2[nH]cnc21 [PCM-0095527] | -4.8
OC1CC2CCC(C1)N2 (stereo not shown) [PCM-0215141] | -1.6
O=C(NCc1ccccc1)c1csc(Nc2ccncn2)n1 [PCM-0095135] | -9
Cn1cc(C2=C(c3ccc(Cl)cc3Cl)C(=O)NC2=O)c2ccccc21 [PCM-0064915] | 3.4
CSc1cccc(Nc2ncc3cc(-c4c(Cl)cccc4Cl)c(=O)n(C)c3n2)c1 [PCM-0215338] | -18.6
C[N+]1(C)C2CCC1CC(OC(=O)C(O)c1ccccc1)C2 (stereo not shown) [PCM-0095577] | -9.3
CN(C)C(=O)CCSC(SCCC(=O)O)c1cccc(/C=C/c2ccc3ccc(Cl)cc3n2)c1 (stereo not shown) [PCM-0215726] | 10.8
COc1cc2nccc(Oc3ccc(NC(=O)NC4CC4)c(Cl)c3)c2cc1C(N)=O [PCM-0095014] | 36.6
N#CC[C@@H](C1CCCC1)n1cc(-c2ncnc3[nH]ccc23)cn1 [PCM-0095369] | 15.9
O=C1Nc2ccc(CN3C(=O)CSC3=O)cc2/C1=C/c1cc(CN2CCOCC2)c[nH]1 [PCM-0215763] | -11

Compound | inhibition at 10 µM [%]
COc1ccc(-c2coc3cc(O)cc(O)c3c2=O)cc1 [PCM-0086643] | 2.3
Fc1cc(F)c2c(c1)[C@H]1C=CC[C@H]1C(c1cccnc1)N2 (stereo partly shown) [PCM-0215243] | -18.5
NC(=O)c1ccc[n+]([O-])c1 [PCM-0215057] | 5.4
C[C@@H](C(=O)Nc1ccc(Cl)cc1)C1CCC(c2ccnc3ccc(F)cc23)CC1 (stereo partly shown) [PCM-0216246] | 27
Cc1cc(C(=O)Nc2nc3cccc(Cl)c3n2[C@@H]2CCCCN(C(=O)/C=C/CN(C)C)C2)ccn1 [PCM-0215804] | 73.8
C=C1CCC[C@]2(C)C[C@]3(O)OC(=O)C(C)=C3C[C@@H]12 [PCM-0216544] | 6.9
CC(C)(C)NC(=O)c1cncn1C1CCN(c2ccc(-c3nnc(C(F)(F)F)o3)cn2)CC1 [PCM-0215700] | -12.4
O=c1cc(-c2ccc(O)cc2)oc2c([C@@H]3OC[C@H](O)[C@H](O)[C@H]3O)c(O)c([C@@H]3O[C@H](CO)[C@@H](O)[C@H](O)[C@H]3O)c(O)c12 [PCM-0216486] | -13.9
CC1(C)CC(=O)c2c(C(F)(F)F)nn(-c3ccc(C(N)=O)c(NC4CCC(O)CC4)c3)c2C1 (stereo not shown) [PCM-0214567] | -36.6
O=C(COc1ccc(C(=O)c2ccccc2)cc1)NC1CCN(Cc2ccccc2)CC1 [PCM-0215280] | -33.2
Cc1nc(-c2cccnc2)sc1C(=O)Nc1ccccc1-c1cn2c(CN3CCOCC3)csc2n1 [PCM-0215454] | 12.4
CC(C)OC(=O)C(C(=O)OC(C)C)=C1SC=CS1 [PCM-0094945] | 3.9
COC(=O)CC[C@H](NC(=O)[C@H](CC(=O)OC)NC(=O)OCc1ccccc1)C(=O)N[C@H](C(=O)N[C@@H](CC(=O)OC)C(=O)CF)C(C)C [PCM-0215362] | 15.4
CCCCCCCCCC(=O)OCC(COC(=O)CCCCCCCCC)OC(=O)CCCCCCCCC [PCM-0216614] | 11.6
CC(C)N(CC[C@H](c1ccccc1)c1cc(CO)ccc1O)C(C)C [PCM-0095530] | 3.9
CCCCCCCC(=O)N[C@H](CN1CCCC1)[C@H](O)c1ccc2c(c1)OCCO2 [PCM-0215629] | -9.3
Cc1cc(/C=C/C#N)cc(C)c1Nc1ccnc(Nc2ccc(C#N)cc2)n1 [PCM-0215269] | 19.3
COc1cc2nc(N(C)CCCNC(=O)C3CCCO3)nc(N)c2cc1OC (stereo not shown) [PCM-0064661] | 1.6
COc1ccc(Cn2ccc3ccc(C(=O)NO)cc32)cc1 [PCM-0095291] | 33.5
NCCc1ccccc1 [PCM-0091318] | 0
O=c1c(-c2ccc(O)cc2)coc2cc(O[C@@H]3O[C@H](CO)[C@@H](O)[C@H](O)[C@H]3O)cc(O)c12 [PCM-0214858] | -9.3
CC(O)(CS(=O)(=O)c1ccc(F)cc1)C(=O)Nc1ccc(C#N)c(C(F)(F)F)c1 (stereo not shown) [PCM-0065600] | 11.7
O=Cc1ccccc1 [PCM-0216202] | -2.3
N#C[C@@H]1C[C@@H]2C[C@@H]2N1C(=O)[C@@H](N)C12CC3CC(CC(O)(C3)C1)C2 [PCM-0095098] | -22.6
